Here are results for 12 compounds from US7566781B2, “Imidazopyridine compound” (Banyu Pharmaceutical Co., Ltd., priority 2004, dated 2009).

This experiment concerns the target T1, human MCH-1R (Homo sapiens, UniProt Q99705).
T1 construct: expressed in transfected cells; host or cells: CHO-K1 (American Type Culture Collection), membrane samples
Kind of experiment: MCH binding inhibition test. Conditions: membranes of MCH-1R expressing CHO-K1 cells, 50 pM [125I]MCH, 25° C., 1 hour, pH 7.4; read-out: IC50 (50% inhibition concentration of test compound to the specific [125I]MCH binding). The method, then:
A human MCH-1R encoding cDNA sequence [FEBS Letters, Vol. 398, 253 (1996); Biochimica et Biophisica Acta, Vol. 1401, 216 (1998)] was cloned to plasmid vector pEF/myc/cyto (Invitrogen Corporation). The obtained expression vector was transfected to a host cell CHO-K1 (American Type Culture Collection) using Lipofectamine Plus Reagent (Life Technology Inc.) to provide MCH-1R expression cells.
Membrane samples prepared from the MCH-1R expression cells were incubated with each test compound and 50 pM of [^125I]MCH (NEN Co.), in an assay buffer (50 mM Tris buffer comprising 10 mM magnesium chloride, 2 mM ethylenediamine tetraacetate, 0.01% bacitracin and 0.2% bovine serum albumin; pH 7.4) at 25° C. for an hour, followed by filtration through Glass Filter GF/C (Wattman Co.). After washing the glass filter with 50 mM Tris buffer (pH 7.4) comprising 10 mM magnesium chloride, 2 mM ethylenediamine tetraacetate and 0.04% Tween-20, the radioactive activity on the glass filter was measured. The non-specific binding was measured in the presence of 1 μM human MCH and 50% inhibition concentration (IC50 value) of each test compound to the specific [^125I]MCH binding was determined.

T1 sequence (Q99705 whole entry): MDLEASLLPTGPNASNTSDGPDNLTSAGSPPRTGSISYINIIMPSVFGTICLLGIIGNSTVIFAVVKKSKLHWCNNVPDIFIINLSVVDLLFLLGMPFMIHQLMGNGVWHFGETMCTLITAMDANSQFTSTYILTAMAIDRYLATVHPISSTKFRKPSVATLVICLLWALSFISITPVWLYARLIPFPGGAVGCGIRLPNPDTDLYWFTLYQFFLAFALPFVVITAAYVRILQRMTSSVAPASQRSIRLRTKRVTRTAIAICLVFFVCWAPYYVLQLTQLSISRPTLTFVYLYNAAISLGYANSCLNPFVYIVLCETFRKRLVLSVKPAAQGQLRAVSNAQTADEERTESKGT

On to `CCc1nc2ccc(NC(=O)c3ccc(OCc4ccccn4)c(F)c3)cn2c1C` [Example 9, N-(2-ethyl-3-methylimidazo[1,2-a]pyridin-6-yl)-3-fluoro-4-(pyridin-2-ylmethoxy)benzamide], for which the IC50 was determined as 3.4 nM.

For `CCc1nc2ccc(NC(=O)c3ccc(OCc4ccc(F)cn4)c(F)c3)cn2c1C` [Example 11, N-(2-ethyl-3-methylimidazo[1,2-a]pyridin-6-yl)-3-fluoro-4-[(5-fluoropyridin-2-yl)methoxy]benzamide], the IC50 worked out at 2.2 nM.

As to `Cc1c(CCCN2CCCC2)nc2ccc(NC(=O)c3ccc(OCc4ccccc4)cc3)cn12` [Example 17], the IC50 is 0.49 nM.

Turning to `Cc1c(C2CC2)nc2ccc(NC(=O)c3ccc(COc4ccccn4)cc3)cn12` [Example 25], the IC50 was 8.4 nM.

For the compound `CCc1nc2ccc(NC(=O)c3ccc(/C=C/c4ccccc4)cc3)cn2c1C` [Example 28, N-(2-ethyl-3-methylimidazo[1,2-a]pyridin-6-yl)-4-((E)-2-phenylvinyl)benzamide], the IC50 was determined as 1.3 nM.

On to `Cc1c(C2CCOC2)nc2ccc(NC(=O)c3ccc(/C(F)=C/c4ccccn4)cc3)cn12` (stereo not drawn) [Example 42], for which the IC50 is 4.8 nM.

Take `Cc1c(CCCN2CCCC2)nc2ccc(NC(=O)c3ccc(/C=C/c4ccccn4)cc3)cn12` [Example 48, N-[3-methyl-2-(3-pyrrolidin-1-ylpropyl)imidazo[1,2-a]pyridin-6-yl]-4-[(E)-2-pyridin-2-ylvinyl]benzamide]: the IC50 stood at 0.47 nM.

Regarding `Cc1c(C(C)C)nc2ccc(NC(=O)c3ccc(CCc4ccccn4)cc3)cn12` [Example 49, N-(2-isopropyl-3-methylimidazo[1,2-a]pyridin-6-yl)-4-(2-pyridin-2-ylethyl)benzamide], the IC50 was 6.2 nM.

As for `CCc1nc2ccc(NC(=O)c3ccc(C(F)Cc4ccccn4)cc3)cn2c1C` (stereo not drawn) [Example 58, N-(2-ethyl-3-methylimidazo[1,2-a]pyridin-6-yl)-4-(1-fluoro-2-pyridin-2-ylethyl)benzamide], the IC50 turned out to be 3.8 nM.

`Cc1c(C2CCOC2)nc2ccc(NC(=O)c3ccc(SCc4ccccn4)cc3)cn12` (stereo not drawn) [Example 59, N-[3-methyl-2-(tetrahydrofuran-3-yl)imidazo[1,2-a]pyridin-6-yl]-4-(pyridin-2-ylmethylsulfanyl)benzamide]: the IC50 is 3.8 nM.

Consider `Cc1c(C2CC2)nc2ccc(NC(=O)c3ccc(NC(=O)c4ccccn4)cc3)cn12` [Example 61, Pyridine-2-carboxylic acid[4-(2-cyclopropyl-3-methylimidazo[1,2-a]pyridin-6-ylcarbamoyl)phenyl]amide], for which the IC50 is 4.7 nM.

As for `CCc1nc2ccc(NC(=O)c3ccc(Oc4cc(Cl)ccn4)cc3)cn2c1C` [Example 67, 4-(4-Chloropyridin-2-yloxy)-N-(2-ethyl-3-methylimidazo[1,2-a]pyridin-6-yl)benzamide], the IC50 stood at 4.3 nM.
